One data set deals with unsorted E2-CAR-T cells. Briefly: 3H-EC17 uptake by E2-CAR-T cells. On the set-up: species or system human. The note with it: unsorted E2-CAR-T cells (~24% EGFRt+, ~95:5 CD8/CD4), 2 hour at room temperature; read-out: Kd of 3H-EC17 binding to E2-CAR-T cells. As for the experimental part:
FIG. 10, Panel A: Kd values of ^3H-EC17 uptake by FR+ target cells after a 2 hour incubation at 37° C. (calculated from the numbers of molecules bound per cell). Panel B: Kd value of ^3H^−EC17 uptake by E2-CAR-T cells (˜24% EGFRt+, ˜95:5 CD8/CD4 ratio) after a 2 hour incubation at room temperate (calculated from total cell-associated radioactivity, DPM).
The EC17 has already been tested in the clinic for immunotherapy and optical imaging purposes. To directly quantify its bispecific binding affinities, ^3H-EC17 was synthesized and radioligand binding assays were carried out on KB and CHO-β cell lines representing FRα+ and FRβ+ target cells, respectively, and on unsorted EGFRt CAR-T cells representing the effector cells.

Another data set has as its system HOS-FRα xenografts. Briefly: HOS-FRα osteosarcoma subcutaneous xenograft, E2 CAR-T cells plus EC17. In kind it is in vivo, NSG mice. From the text:
Panel A: Schematic diagram to show dose scheduling of CAR-T cells (˜6 million, day 0) plus EC17 in NSG mice with 3-day-old subcutaneous HOS-FRα xenografts (n=5). Starting 3 days after CAR-T cell injection (6 days after tumor implant), 3 cycles of EC17 M/Th/M […], i.e. on days 3/6/10, 17/20/24, and 31/34/38. Panel B: Measurements of tumor volumes and change in body weights. Due to tumor progression, five mice received CAR-T cells only (no EC17) were euthanized on days 23-31, and five EC17 treated mice were euthanized on days 33 (2 mice) and 47 (3 mice), respectively. Panel C: Flow cytometric analysis of CAR-T cells (human CD3ε+EGFRT+) PER 100 μL OF WHOLE BLOOD PLOTTED ON A LOGARITHMIC SCALE (LEFT) AND TUMOR-infiltrating CAR-T cells at the time of euthanasia (right).
HOS-FRα (i.e. HOS-143b-LV-FRα) is a subclone of HOS-143B (ATCC CRL-8303) stably transfected with human FRα. HOS-143B was originally derived from a […] with osteosarcoma. The tumor cells were grown in folate-deficient RPMI 1640 with 5% FBS at 37° C. in a 5% CO2 humidified atmosphere. For the in-vivo study, tumor cells were inoculated subcutaneously at 1×10^6 cells per animal.
EGFRt-sorted anti-FITC E2 scFv-CAR T cells were frozen in a T-cell freezing medium. Upon arrival, vials of frozen CAR-T cells were immediately stored at −80° C. The CAR-T cells were quickly thawed at 37° C., washed twice with PBS, and used for animal injection at 6 million viable EGFRt+ E2 CAR-T cells (CD4/CD8 at ˜1:1) per animal. A small aliquot was taken on the day infusion for flow cytometric analysis of E2-CAR T-cell phenotypes.
EC17 dosing solutions were prepared when dosing began by weighing appropriate amounts of each compound, reconstituting in PBS, pH 7.4, sterile filtering the drug solution through a 0.22 μm PVDF syringe filter, and freezing aliquots for each day of dosing at −20° C.
All EC17 doses were given towards the end of day (3-4 PM) to allow potential CRS (cytokine release syndrome) to develop overnight. On the following morning, animals were scored according to a CRS grading system (see below).
Tumor growth, body weight, and overall assessment: Tumor sizes were monitored 2-3 times/week and body weight measured 2-3 times/week. On the days immediately after any EC17 dose, body weight measurement was taken daily and attention was given to gross animal morphology and behavior.
Euthanasia: Euthanasia was performed when mice had lost ≥20% of their weight, when tumors reached ≥1500 mm^3. Euthanasia was also performed if mice lost a lot of weight in a short duration (e.g., due to severe head-tilt), or when they approached moribund conditions per CRS grading system. • EC17 intra-host dose escalation treatment (3 cycles). See FIG. 16. • Antitumor activity (N=5)
All animal care and use were performed according to NIH guidelines and in compliance with protocols approved by the Purdue University Animal Use and Care Committee. Female 4 to 5-week-old NOD/SCID gamma (NSG™) mice (stock number: 005557) were purchased from The Jackson Laboratory (Bar Harbor, ME). Unless specifically indicated, all animals were maintained on a FA-deficient diet (TestDiet, St. Louis, MO) upon arrival and throughout the study. To establish subcutaneous xenografts, MDA-MB-231 and HOS-FRα were implanted in the right flank region at 2.5×10^6 and 1×10^6 cells per animal, respectively. […] Subcutaneous tumors were measured 2-3 times per week with a caliper and calculated using the ellipsoidal formula (length×width^2)/2. […]

The text below walks through data of patent US12240870B2, “Sequencing method for CAR T cell therapy” (Purdue Research Foundation, priority 2018, dated 2025).

Molecules are shown by their SMILES. “Also recorded” adds a separate entry of the source.

The Kd is the concentration at which binding is half-saturated. As for `Nc1nc2ncc(CNc3ccc(C(=O)N[C@@H](CCC(=O)NCCNC(=S)Nc4ccc(-c5c6ccc(=O)cc-6oc6cc(O)ccc56)c(C(=O)O)c4)C(=O)O)cc3)nc2c(=O)[nH]1` [EC17, FA-(γ)-ethylenediamine-FITC], in the data set on unsorted E2-CAR-T cells, the Kd is around 130 nM. Also, the “tumor volume (antitumor activity)” value in the data set on HOS-FRα xenografts (6 million E2 CAR-T cells + EC17 5/100/1000 nmol/kg, M/Th/M (Cohort 2, FIG. 4)) is given as “significant tumor regression”. In the data set with HOS-FRα xenografts (6 million E2 CAR-T cells + EC17 slow dose escalation M/Th/M (Cohort 2, FIG. 4)), the “body weight loss or CRS” value is “without body weight loss or CRS; also recorded: No body weight loss or symptoms of cytokine release syndrome (CRS) were observed”. Also, the “day of euthanasia due to tumor progression” value in the data set with HOS-FRα xenografts (five EC17 treated mice, EC17 M/Th/M dose escalation) was 33 (2 mice) and 47 (3 mice) days. Further, in the data set on HOS-FRα xenografts (~6 million E2-CAR-T cells + EC17 5/10/100, 5/30/300, 5/50/500 nmol/kg Cycles 1-3, M/Th/M (FIG. 14)), the “CRS or body weight loss” value is on record as “no CRS or body weight loss”. For the same compound, the tumor growth entry with HOS-FRα xenografts (~6 million E2-CAR-T cells + EC17 5/10/100, 5/30/300, 5/50/500 nmol/kg Cycles 1-3, M/Th/M, 6-day break (FIG. 14)) is “significant delay in tumor growth; also recorded: stopped responding to treatment in Cycle 3”.
